In ChEMBL document CHEMBL1201862, “PubChem BioAssay data set” (2004):
Values joined by “and” are separate entries in the source; they are usually repeats but may differ in a detail not shown here. Identical values can stand only once.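 Following 48 hours of exposure in 96-well plates, responses at five concentrations were used to interpolate endpoints linearly. GI50 = concentration required for 50% inhibition of growth.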 Active and inactive are the calls of the source. Rule as the data show it: active = GI50 up to about 1.1 µM and inactive = higher. Non-standard residues stand in square brackets, D forms with d. Residues, ends and D or L forms follow the SMILES beside them. *: point of attachment. Benzoyl(4-OMe) = COc1ccc(C(=O)*)cc1; 2Thi = N[CH](Cc1cccs1)C(=O)O

Legend:
Experiment in all cases: NCI-60 cell line screen, 48 h
Hs-578T = system: Hs-578T
EKVX = system: EKVX
SK-MEL-5 = system: SK-MEL-5
SW-620 = system: SW-620
CCRF-CEM = system: CCRF-CEM
TK-10 = system: TK-10
A498 = system: A498
UACC-257 = system: UACC-257
SR = system: SR
OVCAR-5 = system: OVCAR-5
U-251 = system: U-251
HCT-116 = system: HCT-116
UO-31 = system: UO-31
SF-268 = system: SF-268
HOP-62 = system: HOP-62
HCC 2998 = system: HCC 2998
PC-3 = system: PC-3
SK-OV-3 = system: SK-OV-3
A549 = system: A549
SK-MEL-2 = system: SK-MEL-2

| SMILES | GI50 (Hs-578T) | GI50 (EKVX) | GI50 (SK-MEL-5) | GI50 (SW-620) | GI50 (CCRF-CEM) | GI50 (TK-10) | GI50 (A498) | GI50 (UACC-257) | GI50 (SR) | GI50 (OVCAR-5) | GI50 (U-251) | GI50 (HCT-116) | GI50 (UO-31) | GI50 (SF-268) | GI50 (HOP-62) | GI50 (HCC 2998) | GI50 (PC-3) | GI50 (SK-OV-3) | GI50 (A549) | GI50 (SK-MEL-2) |
| --- | --- | --- | --- | --- | --- | --- | --- | --- | --- | --- | --- | --- | --- | --- | --- | --- | --- | --- | --- | --- |
| CCC(C)C(NC(=O)C(Cc1cccs1)NC(=O)C(CC(C)C)NC(=O)C(CC(C)C)NC(=O)C(CCCCN)NC(=O)C(CCCNC(=N)N)NC(=O)c1ccc(OC)cc1)C(=O)NC(CC(C)C)C(N)=O (stereo not drawn) ({Benzoyl(4-OMe)}-RKLL[2Thi]IL-NH2; configuration not given here) | > 100 µM (inactive) | > 100 µM (inactive) | > 100 µM (inactive) | > 100 µM (inactive) | 78.2 µM (inactive) | > 100 µM (inactive) | > 100 µM (inactive) | > 100 µM (inactive) | > 100 µM (inactive) | > 100 µM (inactive) | > 100 µM (inactive) | > 100 µM (inactive) | > 100 µM (inactive) | > 100 µM (inactive) | > 100 µM (inactive) | > 100 µM (inactive) | > 100 µM (inactive) | > 100 µM (inactive) | > 100 µM (inactive) |  |
| Nc1nc(NNc2cccc(F)c2)cc(=O)[nH]1 | 36.8 µM (inactive) | > 100 µM (inactive) | 42.7 µM (inactive) | 31.2 µM (inactive) | 43.5 µM (inactive) | > 100 µM (inactive) | > 100 µM (inactive) | > 100 µM (inactive) | 27 µM (inactive) | > 100 µM (inactive) | 20.7 µM (inactive) | 24 µM (inactive) | 89.1 µM (inactive) |  | 25 µM (inactive) | 35.5 µM (inactive) | 25.2 µM (inactive) |  | 29.6 µM (inactive) |  |
| CCCc1cc(=O)oc2c3c(c4c(c12)OC(C)(C)C=C4)O[C@@H](C)[C@H](C)C3=O | 15.3 µM (inactive) | 12.2 µM (inactive) | 15.8 µM (inactive) | 13.4 µM (inactive) | 15.1 µM (inactive) | 20.7 µM (inactive) | 14.7 µM (inactive) | 19.7 µM (inactive) | 10.2 µM (inactive) | 17.9 µM (inactive) | 23.4 µM (inactive) | 10.4 µM (inactive) | 15.8 µM (inactive) | 17.1 µM (inactive) | 18.5 µM (inactive) | 15.3 µM (inactive) | 15.5 µM (inactive) |  | 8.83 µM (inactive) |  |
| COC(=O)[C@]1(C)CCCC2(C)C3=C(CCC21)CC1(CC3)SCCS1 (stereo partly drawn) | > 10 µM (inactive) | > 10 µM (inactive) | > 10 µM (inactive) | > 10 µM (inactive) | > 10 µM (inactive) | > 10 µM (inactive) | > 10 µM (inactive) | > 10 µM (inactive) | > 10 µM (inactive) |  | > 10 µM (inactive) | > 10 µM (inactive) |  | > 10 µM (inactive) | > 10 µM (inactive) | > 10 µM (inactive) | > 10 µM (inactive) | > 10 µM (inactive) | > 10 µM (inactive) |  |
| CN1C/C(=C\c2ccc(Cl)cc2)C(=O)/C(=C/c2ccc(Cl)cc2)C1 | 2.65 µM (inactive) | 15.6 µM (inactive) | 2.69 µM (inactive) | 0.386 µM (active) | 0.323 µM (active) | 8.75 µM (inactive) | 1.55 µM (inactive) | 0.443 µM (active) | 0.323 µM (active) | 3.34 µM (inactive) | 0.454 µM (active) | 0.208 µM (active) | 1.77 µM (inactive) | 1.63 µM (inactive) | 2.68 µM (inactive) | 2.33 µM (inactive) | 1.77 µM (inactive) |  | 2.2 µM (inactive) | > 88.9 µM (inactive) |
| O=C(NCCCl)NCc1ccccc1 | > 100 µM (inactive) | > 100 µM (inactive) | > 100 µM (inactive) | > 100 µM (inactive) | > 100 µM (inactive) |  | > 100 µM (inactive) | > 100 µM (inactive) | > 100 µM (inactive) | > 100 µM (inactive) | > 100 µM (inactive) | > 100 µM (inactive) | > 100 µM (inactive) | > 100 µM (inactive) | > 100 µM (inactive) | > 100 µM (inactive) | > 100 µM (inactive) | > 100 µM (inactive) | > 100 µM (inactive) | > 100 µM (inactive) |
| CCOC(=O)[C@@H]1OC(c2ccccc2)O[C@H]1C(=O)OCC | > 100 µM (inactive) | > 100 µM (inactive) | > 100 µM (inactive) | > 100 µM (inactive) | > 100 µM (inactive) | > 100 µM (inactive) | > 100 µM (inactive) | > 100 µM (inactive) | > 100 µM (inactive) | > 100 µM (inactive) | > 100 µM (inactive) | > 100 µM (inactive) | > 100 µM (inactive) | > 100 µM (inactive) | > 100 µM (inactive) |  | > 100 µM (inactive) | > 100 µM (inactive) | > 100 µM (inactive) | > 100 µM (inactive) |
| CC(C)(C)c1cc(C(=O)C2Cc3ccccc3C(=O)O2)cc(C(C)(C)C)c1O (stereo not drawn) | 29.3 µM (inactive) | 12.3 µM (inactive) | 12.6 µM (inactive) | 10.3 µM (inactive) | 5.01 µM (inactive) | 15.3 µM (inactive) | 13.5 µM (inactive) | 11.6 µM (inactive) | 3.59 µM (inactive) | 16.6 µM (inactive) | 10.5 µM (inactive) | 10.2 µM (inactive) | 11.2 µM (inactive) | 14.5 µM (inactive) | 13.7 µM (inactive) |  | 11.7 µM (inactive) | 24 µM (inactive) | 13.1 µM (inactive) | 10.9 µM (inactive) |
| N#Cc1c(-c2ccccc2)c(C#N)c(=S)n(C2OCC(O)C(O)C2O)c1N (stereo not drawn) | > 100 µM (inactive) |  | > 100 µM (inactive) | > 100 µM (inactive) | > 100 µM (inactive) | 30.8 µM (inactive) and 61.5 µM (inactive) | > 100 µM (inactive) | > 100 µM (inactive) | > 100 µM (inactive) | > 100 µM (inactive) |  |  | > 100 µM (inactive) | > 100 µM (inactive) | > 100 µM (inactive) | > 100 µM (inactive) | > 100 µM (inactive) | > 100 µM (inactive) | > 100 µM (inactive) | > 100 µM (inactive) |
| COc1cc(COC(=O)N2CC=CC2C(=O)O)c([N+](=O)[O-])cc1OC (stereo not drawn) | > 100 µM (inactive) | > 100 µM (inactive) | > 100 µM (inactive) | > 100 µM (inactive) | > 100 µM (inactive) | > 100 µM (inactive) | > 100 µM (inactive) | > 100 µM (inactive) | > 100 µM (inactive) | > 100 µM (inactive) | > 100 µM (inactive) | > 100 µM (inactive) | > 100 µM (inactive) | > 100 µM (inactive) | > 100 µM (inactive) | > 100 µM (inactive) | > 100 µM (inactive) | > 100 µM (inactive) | > 100 µM (inactive) |  |
| O=c1oc2cc(/N=C/c3ccc4c(c3)OCO4)ccc2c2ccccc12 | > 100 µM (inactive) | 3.66 µM (inactive) | 76.6 µM (inactive) | 97.9 µM (inactive) | 50.4 µM (inactive) | 41.4 µM (inactive) | 49.8 µM (inactive) | > 100 µM (inactive) | 25.5 µM (inactive) | > 100 µM (inactive) | 43.1 µM (inactive) | 46.3 µM (inactive) | 70 µM (inactive) | 61 µM (inactive) | 36 µM (inactive) |  | > 100 µM (inactive) | 34.1 µM (inactive) | > 100 µM (inactive) | 92.9 µM (inactive) |
| COc1ccc(C2C3=C(COC3=O)Oc3cc4c(cc32)OCO4)c(OC)c1 (stereo not drawn) | 13.6 µM (inactive) | 48.5 µM (inactive) | 10.7 µM (inactive) | 5.81 µM (inactive) | 11.1 µM (inactive) | 62.1 µM (inactive) | 16.1 µM (inactive) | 47.9 µM (inactive) | 4.99 µM (inactive) | 43.5 µM (inactive) | 19.3 µM (inactive) | 6.24 µM (inactive) | 16.3 µM (inactive) | 34 µM (inactive) | 30.3 µM (inactive) | 20.8 µM (inactive) | 6.75 µM (inactive) | 17.3 µM (inactive) | 10.9 µM (inactive) |  |
| CCCNC(=O)Nc1ccc2c(c1)Cc1cc(N(CCCl)CCCl)ccc1-2 | 25.6 µM (inactive) | 18.6 µM (inactive) | 13.7 µM (inactive) | 28.6 µM (inactive) | 58.3 µM (inactive) | 61.9 µM (inactive) | 10.6 µM (inactive) | 41.7 µM (inactive) | 1.32 µM (inactive) | 76 µM (inactive) | 18 µM (inactive) | 49.9 µM (inactive) | 17.4 µM (inactive) | 21.8 µM (inactive) | 81.5 µM (inactive) | 28.2 µM (inactive) | 25.2 µM (inactive) |  | 23.9 µM (inactive) | 29.2 µM (inactive) |
| COC1OC(C)C(NC(=O)OCC(Cl)(Cl)Cl)C2OC(C)(C)OC12 (stereo not drawn) | > 100 µM (inactive) | > 100 µM (inactive) | > 100 µM (inactive) | > 100 µM (inactive) | > 100 µM (inactive) | > 100 µM (inactive) | > 100 µM (inactive) | > 100 µM (inactive) | > 100 µM (inactive) | > 100 µM (inactive) | > 100 µM (inactive) | > 100 µM (inactive) | > 100 µM (inactive) | > 100 µM (inactive) | > 100 µM (inactive) | > 100 µM (inactive) | > 100 µM (inactive) | > 100 µM (inactive) | > 100 µM (inactive) |  |
| CC1=CP(=O)(c2c(C(C)C)cc(C(C)C)cc2C(C)C)CCC1Cl (stereo not drawn) | 27.5 µM (inactive) | 16 µM (inactive) | 16.6 µM (inactive) | 21.6 µM (inactive) | 14.1 µM (inactive) | 15.9 µM (inactive) | 15.9 µM (inactive) | 11.6 µM (inactive) | 0.769 µM (active) | 16.4 µM (inactive) | 14.8 µM (inactive) | 20.1 µM (inactive) | 13.9 µM (inactive) | 16.3 µM (inactive) | 17 µM (inactive) |  | 13.4 µM (inactive) | 19.4 µM (inactive) | 14.1 µM (inactive) | 16.1 µM (inactive) |
